Reference: the NIST ThermoML archive (doi:10.1016/j.jct.2007.07.005)

Assay: xn = mol fraction of the nth substance listed
Conditions: Fluid (supercritical or subcritical phases), vibrating tube

CCCCCO [pentan-1-ol] + O=C=O
Conditions	mass density [kg/m3]
342.87 K, 20033 kPa, x2 = 0.4651	814.31
342.87 K, 21025 kPa, x2 = 0.4651	815.82
342.87 K, 21037 kPa, x2 = 0.3624	811.12
342.87 K, 21039 kPa, x2 = 0.7274	812.39
342.87 K, 21983 kPa, x2 = 0.4651	817.26
342.87 K, 21990 kPa, x2 = 0.3624	812.11
342.87 K, 22001 kPa, x2 = 0.7274	815.49
342.87 K, 23014 kPa, x2 = 0.4651	818.77
342.87 K, 23015 kPa, x2 = 0.7274	818.69
342.87 K, 23033 kPa, x2 = 0.3624	813.18
342.87 K, 24005 kPa, x2 = 0.3624	814.16
342.87 K, 24023 kPa, x2 = 0.4651	820.23
342.87 K, 24099 kPa, x2 = 0.7274	821.95
342.87 K, 25028 kPa, x2 = 0.3624	815.18
342.88 K, 3034 kPa, x2 = 0.0816	781.33
342.88 K, 4000 kPa, x2 = 0.0816	782.24
342.88 K, 4969 kPa, x2 = 0.0816	783.19
342.88 K, 5981 kPa, x2 = 0.0816	784.14
342.88 K, 7023 kPa, x2 = 0.0816	785.12
342.88 K, 8012 kPa, x2 = 0.0816	786.04
342.88 K, 9030 kPa, x2 = 0.0816	786.97
342.88 K, 10026 kPa, x2 = 0.0816	787.86
342.88 K, 10992 kPa, x2 = 0.0816	788.72
342.88 K, 11981 kPa, x2 = 0.0816	789.59
342.88 K, 13062 kPa, x2 = 0.0816	790.54
342.88 K, 14001 kPa, x2 = 0.9216	654.38
342.88 K, 14013 kPa, x2 = 0.0816	791.33
342.88 K, 15014 kPa, x2 = 0.9216	679.88
342.88 K, 15025 kPa, x2 = 0.0816	792.19
342.88 K, 15995 kPa, x2 = 0.0816	793.03
342.88 K, 16009 kPa, x2 = 0.9216	699.02
342.88 K, 16999 kPa, x2 = 0.0816	793.86
342.88 K, 17032 kPa, x2 = 0.9216	715.18
342.88 K, 18002 kPa, x2 = 0.9216	728.34
342.88 K, 18009 kPa, x2 = 0.0816	794.69
342.88 K, 19029 kPa, x2 = 0.0816	795.51
342.88 K, 19057 kPa, x2 = 0.9216	740.82
342.88 K, 19987 kPa, x2 = 0.0816	796.28
342.88 K, 19996 kPa, x2 = 0.9216	750.81
342.88 K, 21039 kPa, x2 = 0.0816	797.11
342.88 K, 21039 kPa, x2 = 0.9216	760.88
342.88 K, 21996 kPa, x2 = 0.0816	797.87
342.88 K, 22026 kPa, x2 = 0.9216	769.6
342.88 K, 22991 kPa, x2 = 0.0816	798.65
342.88 K, 24056 kPa, x2 = 0.0816	799.48
342.88 K, 25041 kPa, x2 = 0.0816	800.25
342.89 K, 14024 kPa, x2 = 0.8573	720.89
342.89 K, 15020 kPa, x2 = 0.8573	735.53
342.89 K, 16007 kPa, x2 = 0.8573	747
342.89 K, 17031 kPa, x2 = 0.8573	757.08
342.89 K, 18025 kPa, x2 = 0.8573	765.71
342.89 K, 19016 kPa, x2 = 0.8573	773.47
342.89 K, 20036 kPa, x2 = 0.8573	780.77
342.89 K, 21016 kPa, x2 = 0.8573	787.25
342.89 K, 21989 kPa, x2 = 0.8573	793.31
342.89 K, 23049 kPa, x2 = 0.8573	799.42
342.89 K, 24035 kPa, x2 = 0.8573	804.78
342.89 K, 24945 kPa, x2 = 0.8573	809.51
342.95 K, 13102 kPa, x2 = 0.6054	801.79
342.95 K, 14086 kPa, x2 = 0.6054	804.2
342.95 K, 15021 kPa, x2 = 0.6054	806.46
342.95 K, 16051 kPa, x2 = 0.6054	808.84
342.95 K, 17053 kPa, x2 = 0.6054	811.1
342.95 K, 18061 kPa, x2 = 0.6054	813.31
342.95 K, 19049 kPa, x2 = 0.6054	815.42
342.95 K, 20084 kPa, x2 = 0.6054	817.54
342.95 K, 21075 kPa, x2 = 0.6054	819.56
342.95 K, 22070 kPa, x2 = 0.6054	821.54
342.95 K, 23069 kPa, x2 = 0.6054	823.48
342.95 K, 24068 kPa, x2 = 0.6054	825.37
342.95 K, 25106 kPa, x2 = 0.6054	827.29
342.96 K, 7006 kPa, x2 = 0.1347	785.93
342.96 K, 8027 kPa, x2 = 0.1347	786.83
342.96 K, 9036 kPa, x2 = 0.1347	787.79
342.96 K, 10053 kPa, x2 = 0.1347	788.74
342.96 K, 11003 kPa, x2 = 0.1347	789.61
342.96 K, 12025 kPa, x2 = 0.1347	790.55
342.96 K, 13042 kPa, x2 = 0.1347	791.48
342.96 K, 14006 kPa, x2 = 0.1347	792.33
342.96 K, 15009 kPa, x2 = 0.1347	793.22
342.96 K, 16036 kPa, x2 = 0.1347	794.12
342.96 K, 17009 kPa, x2 = 0.1347	794.98
342.96 K, 18011 kPa, x2 = 0.1347	795.84
342.96 K, 19019 kPa, x2 = 0.1347	796.7
342.96 K, 20016 kPa, x2 = 0.1347	797.55
342.96 K, 20998 kPa, x2 = 0.1347	798.37
342.96 K, 22010 kPa, x2 = 0.1347	799.2
342.96 K, 23002 kPa, x2 = 0.1347	800.03
342.96 K, 24085 kPa, x2 = 0.1347	800.92
342.96 K, 25038 kPa, x2 = 0.1347	801.69
352.71 K, 508 kPa, x2 = 0	768.15
352.71 K, 1011 kPa, x2 = 0	768.66
352.71 K, 1995 kPa, x2 = 0	769.61
352.71 K, 3014 kPa, x2 = 0	770.57
352.71 K, 3998 kPa, x2 = 0	771.49
352.71 K, 5022 kPa, x2 = 0	772.45
352.71 K, 6012 kPa, x2 = 0	773.35
352.71 K, 7006 kPa, x2 = 0	774.26
352.71 K, 8024 kPa, x2 = 0	775.17
352.71 K, 9005 kPa, x2 = 0	776.05
352.71 K, 10016 kPa, x2 = 0	776.94
352.71 K, 11026 kPa, x2 = 0	777.81
352.71 K, 12001 kPa, x2 = 0	778.65
352.71 K, 13002 kPa, x2 = 0	779.5
352.71 K, 14026 kPa, x2 = 0	780.35
352.71 K, 15000 kPa, x2 = 0	781.18
352.71 K, 16005 kPa, x2 = 0	781.98
352.71 K, 17023 kPa, x2 = 0	782.81
352.71 K, 18003 kPa, x2 = 0	783.59
352.71 K, 19049 kPa, x2 = 0	784.43
352.71 K, 20035 kPa, x2 = 0	785.2
352.71 K, 21002 kPa, x2 = 0	785.96
352.71 K, 21995 kPa, x2 = 0	786.73
352.71 K, 23020 kPa, x2 = 0	787.52
352.71 K, 24045 kPa, x2 = 0	788.32
352.71 K, 25009 kPa, x2 = 0	789.05
352.73 K, 17393 kPa, x2 = 0.9757	574.15
352.73 K, 18036 kPa, x2 = 0.9757	591.88
352.73 K, 19032 kPa, x2 = 0.9757	616.27
352.73 K, 20013 kPa, x2 = 0.9757	637.17
352.73 K, 21057 kPa, x2 = 0.9757	656.66
352.73 K, 22011 kPa, x2 = 0.9757	672.48
352.73 K, 23064 kPa, x2 = 0.9757	688.28
352.73 K, 24053 kPa, x2 = 0.9757	701.67
